# Laboratory results as given in US9688689B2, “Compounds and compositions for inducing chondrogenesis” (Novartis AG, priority 2014, dated 2017).
# pIC50: −log10 of the molar value.
# Tested on: Primary articular chondrocytes from normal bovine knees
# Experiment: NO Release Assay in Bovine Chondrocytes (inhibition of cytokine induced NO release, Greiss reagent)
# Assay type: cell-based
# Conditions: Bos taurus, Chondrocyte; 20 ng/ml TNFα and 10 ng/ml human oncostatin M, 48 hours; read-out: NO Inh. IC50
# Method: The compounds of the present invention were evaluated in two functional assays to assess their chondrogenesis activities (Type II Collagen Expression) and chondrocyte protective activities (NO release assay).
# The assay was described in Johnson, K., et al., (2012) Science 336, 717-721. Chondrocytes release NO during OA pathogenesis. This assay measures the inhibition of nitric oxide release by the treated compound (an indicator of chondro-protection) Primary articular chondrocytes from normal bovine knees (Animal Technologies, Tyler, Tex.) were isolated after dissection and collagenase digestion (Worthington Biochemical) of the tibial plateau and femoral condyle articular cartilage. The cells were initially plated at 80-90% confluency after isolation. Primary chondrocytes were cultured in high-glucose Dulbecco's modified Eagle's medium (DMEM) supplemented with 10% fetal bovine serum (FBS), 1% L-glutamine, 100 units/ml of penicillin, and 50 μg/ml of streptomycin (Life Technologies, Carlsbad, Calif.) and maintained at 37° C. in the presence of 5% CO2 for 7 days prior to initiation of each experiment. During the 7-day culture period, the cells adhered and established a chondrocyte-like appearance that was maintained throughout the experimental period. Functional studies on chondrocytes were performed in high-glucose DMEM with no FBS unless indicated otherwise.
# After one week of culture, 8500 cells were plated per well in Greiner 384 well white clear bottom plates in growth media. Following 24 hours of culture, the media was removed and replaced with serum free DMEM containing 20 ng/ml TNFα and 10 ng/ml human oncostatin M (inflammatory mediators). […] 20 μl of the supernatant was mixed with 20 μl of the Greiss reagent (Promega # G2930) and quantitated at 540 nm. The Greiss reagent part A (1% Sulfanilamide in 5% phosphoric acid) was mixed at a 1:1 ration with Greiss reagent part B (0.1% N-1-napthylethylenediamine dihydrochloride in water) immediately prior to added to the culture supernatant.
row,Compound,pIC50
1,"O=C(Nc1ccc(Cl)c(Cl)c1)[C@@H]1[C@@H](c2ccncc2)[C@@H]2CC[C@H]1O2 (single isomer, unassigned) [Compound 71]",< 4.54
2,"O=C(Nc1ccc(Cl)c(Cl)c1)[C@H]1[C@H](c2ccncc2)[C@H]2CC[C@@H]1O2 (single isomer, unassigned) [Compound 103]",< 4.54
3,"Nc1cc([C@@H]2[C@@H](C(=O)Nc3ccc(Cl)c(Cl)c3)[C@H]3CC[C@@H]2O3)ccn1 (single isomer, unassigned) [Compound 107]",< 4.48
4,"Nc1cc([C@@H]2[C@H](C(=O)Nc3ccc(Cl)c(Cl)c3)[C@H]3CC[C@@H]2O3)ccn1 (single isomer, unassigned) [Compound 115]",4.59
5,CCOC(=O)c1ccccc1NC(=O)[C@H]1[C@@H](c2nc(-c3ccc(Cl)cc3)no2)[C@@H]2CC[C@H]1O2 [Compound 2],< 4.52
6,Nc1cc([C@@H]2[C@@H](C(=O)Nc3ccc(Cl)c(Cl)c3)[C@H]3CC[C@@H]2O3)ccn1 [Compound 5],4.80
7,O=C(Nc1ccc(Cl)c(Cl)c1)[C@@H]1[C@H](c2ccncc2)[C@H]2CC[C@@H]1O2 [Compound 8],< 4.48
8,COC(=O)c1cc(-c2ccccc2)ccc1NC(=O)[C@H]1[C@@H](c2nc(-c3ccc(Cl)cc3)no2)[C@@H]2CC[C@H]1O2 [Compound 9],< 4.95
9,Nc1cc([C@H]2[C@H](C(=O)Nc3ccc(Cl)c(Cl)c3)[C@@H]3CC[C@H]2O3)ccn1 [Compound 10],4.66
10,O=C(Nc1ccc(Cl)c(Cl)c1)[C@H]1[C@@H](c2ccncc2)[C@@H]2CC[C@H]1O2 [Compound 11],< 4.48
11,CCOC(=O)c1ccc(NC(=O)[C@H]2[C@@H](c3nc(-c4ccc(Cl)cc4)no3)[C@@H]3CC[C@H]2O3)cc1 [Compound 17],< 4.95
12,O=C(Nc1ccc(Cl)c(F)c1)[C@@H]1[C@H](c2ccncc2)[C@@H]2CC[C@H]1O2 [Compound 18],< 4.48
13,N#Cc1cc([C@H]2[C@@H](C(=O)Nc3ccc(-c4ccccc4F)c(F)c3)[C@H]3CC[C@@H]2O3)ccn1 [Compound 20],< 4.48
14,COC(=O)c1cc(Cl)ccc1NC(=O)[C@H]1[C@H](c2ccncc2)[C@@H]2CC[C@H]1O2 [Compound 24],< 4.48
15,O=C(Nc1ccc(-c2ccccc2Cl)c(F)c1)[C@H]1[C@H](c2ccncc2)[C@@H]2CC[C@H]1O2 [Compound 26],< 5.47
16,O=C(Nc1ccc(-c2ccccc2F)c(Cl)c1)[C@@H]1C(c2cccc(C(F)(F)F)n2)[C@@H]2CC[C@H]1O2 (stereo partly drawn) [Compound 27],< 4.48
17,O=C(Nc1ccc(-c2ccccc2Cl)c(F)c1)C1=C(c2ccnn2C2CCOCC2)[C@@H]2CCC1O2 [Compound 31],< 4.48
18,Cc1cc(C2=C(C(=O)Nc3ccc(-c4ccccc4F)c(F)c3)C3CC[C@@H]2O3)ccn1 [Compound 32],< 4.57
19,O=C(Nc1ccc(Cl)c(F)c1)[C@H]1[C@H](c2ccncc2)[C@@H]2CC[C@H]1O2 [Compound 33],< 4.48
20,O=C(Nc1cnc(-c2ccccc2)nc1)C1=C(c2ccncc2)C2CCC1O2 (stereo not drawn) [Compound 38],< 4.48

row,Compound,pIC50
1,O=C(Nc1ccc(-c2ccccc2)c(Cl)c1)[C@H]1[C@H](c2ccncc2)[C@@H]2CC[C@H]1O2 [Compound 39],< 4.48
2,O=C(Nc1cccc(Cl)c1F)[C@H]1[C@H](c2ccncc2)[C@@H]2CC[C@H]1O2 [Compound 41],< 4.48
3,CCOC(=O)c1ccc(NC(=O)C2=C(c3cccc(C(F)(F)F)n3)[C@@H]3CCC2O3)cc1F [Compound 43],< 4.48
4,O=C(Nc1ccc(-c2ccccc2F)c(F)c1)C1=C(c2ccnc(Cl)c2)[C@@H]2CCC1O2 [Compound 44],4.55
5,O=C(Nc1ccc(-c2ccccc2)c(Cl)c1)C1=C(c2ccn[nH]2)[C@@H]2CC[C@H]1O2 [Compound 47],4.74
6,Nc1cc(C2=C(C(=O)Nc3ccc(-c4ccccc4F)c(F)c3)C3CC[C@@H]2O3)ccn1 [Compound 49],< 4.48
7,O=C(Nc1ccc(-c2ccccc2)c(Cl)c1)C1=C(c2ccnn2C2CCOCC2)[C@@H]2CCC1O2 [Compound 50],4.85
8,O=C(Nc1cccc(OC(F)(F)F)c1F)C1=C(c2ccncc2)[C@@H]2CCC1O2 [Compound 51],4.59
9,O=C(Nc1ccc(-c2ccccc2F)c(F)c1)[C@H]1[C@H](c2ccncc2)[C@@H]2CC[C@H]1O2 [Compound 52],< 4.48
10,COC(=O)c1cc(Cl)ccc1NC(=O)C1=C(c2ccncc2)[C@@H]2CCC1O2 [Compound 54],< 4.48
11,N#Cc1cc(C2=C(C(=O)Nc3ccc(-c4ccccc4F)c(F)c3)C3CC[C@@H]2O3)ccn1 [Compound 56],< 4.48
12,Cc1cc(NC(=O)C2=C(c3ccncc3)[C@@H]3CCC2O3)nn1-c1ccccc1 [Compound 61],< 4.48
13,O=C(Nc1ccc(-c2ccccc2F)c(F)c1)C1=C(c2ccnn2C2CCOCC2)C2CCC1O2 (stereo not drawn) [Compound 62],4.82
14,Nc1cc([C@H]2[C@@H](C(=O)Nc3ccc(-c4ccccc4F)c(F)c3)[C@H]3CC[C@@H]2O3)ccn1 [Compound 64],< 4.48
15,Cn1cc2cc([C@H]3[C@@H](C(=O)Nc4ccc(-c5ccccc5F)c(F)c4)[C@H]4CC[C@@H]3O4)ccc2n1 [Compound 65],< 4.48
16,CCOC(=O)c1ccc(NC(=O)C2=C(c3ccncc3)C3CCC2O3)cc1F (stereo not drawn) [Compound 67],< 4.48
17,Cc1cc([C@@H]2[C@@H](C(=O)Nc3ccc(Cl)c(Cl)c3)[C@H]3CC[C@@H]2O3)ccn1 [Compound 69],4.68
18,O=C(Nc1ccc(-c2ccc(F)cc2F)c(F)c1)[C@H]1[C@H](c2ccncc2)[C@@H]2CC[C@H]1O2 [Compound 70],< 4.48
19,O=C(Nc1ccc(-c2ccccc2)cc1)[C@@H]1[C@H](c2ccncc2)[C@@H]2CC[C@H]1O2 [Compound 74],< 4.48
20,O=C(Nc1ccc(-c2ccccc2Cl)c(F)c1)[C@@H]1[C@@H](c2ccncc2)[C@@H]2CC[C@H]1O2 [Compound 76],< 4.48

row,Compound,pIC50
1,CN(C)c1ncc([C@H]2[C@@H](C(=O)Nc3ccc(-c4ccccc4F)c(F)c3)[C@H]3CC[C@@H]2O3)cn1 [Compound 78],6.62
2,O=C(Nc1ccc(-c2ccccc2F)c(F)c1)[C@@H]1[C@@H](c2ccccn2)[C@@H]2CC[C@H]1O2 [Compound 80],< 4.77
3,O=C(Nc1ccc(-c2ccccc2)c(Cl)c1)[C@@H]1[C@@H](c2cccc(C(F)(F)F)n2)[C@@H]2CC[C@H]1O2 [Compound 83],< 4.48
4,O=C(Nc1ccc(-c2ccccc2F)c(F)c1)[C@@H]1[C@@H](c2cccc(C(F)(F)F)n2)[C@@H]2CC[C@H]1O2 [Compound 86],< 4.48
5,O=C(Nc1ccc(-c2ccccc2F)c(F)c1)[C@@H]1[C@H](c2cc(Cl)nc(Cl)c2)[C@@H]2CC[C@H]1O2 [Compound 87],< 4.48
6,Cn1nc(C(F)(F)F)cc1[C@@H]1[C@@H](C(=O)Nc2ccc(Cl)c(Cl)c2)[C@H]2CC[C@@H]1O2 [Compound 89],< 4.48
7,O=C(Nc1ccc(Cl)c(Cl)c1)[C@@H]1[C@@H](c2cccc(C(F)(F)F)n2)[C@@H]2CC[C@H]1O2 [Compound 92],< 4.48
8,C[C@]12CC[C@](C)(O1)[C@@H](c1ccncc1)[C@H]2C(=O)Nc1ccc(-c2ccccc2F)c(F)c1 [Compound 93],< 4.48
9,O=C(Nc1ccc(-c2ccccc2F)c(F)c1)[C@@H]1[C@H](c2ccnc(F)c2Cl)[C@@H]2CC[C@H]1O2 [Compound 95],6.74
10,O=C(Nc1ccc(-c2ccccc2F)c(F)c1)C1=C(c2ccnc(F)c2Cl)[C@@H]2CCC1O2 [Compound 97],4.65
11,O=C(Nc1ccc(-c2ccccc2)c(Cl)c1)[C@@H]1[C@@H](c2ccncc2)[C@@H]2CC[C@H]1O2 [Compound 98],< 4.48
12,O=C(Nc1ccc(-c2ccccc2)c(Cl)c1)[C@H]1[C@@H](c2ccncc2)[C@@H]2CC[C@H]1O2 [Compound 104],< 4.48
13,O=C(Nc1ccc(-c2ccccc2F)c(F)c1)C1=C(c2ccncc2F)[C@@H]2CCC1O2 [Compound 109],< 4.48
14,O=C(Nc1ccc(-c2ccc(F)cc2F)c(F)c1)[C@@H]1[C@@H](c2ccncc2)[C@@H]2CC[C@H]1O2 [Compound 111],< 4.48
15,O=C(Nc1ccc(-c2ccccc2F)c(F)c1)C1=C(c2cc(Cl)nc(Cl)c2)[C@@H]2CC[C@H]1O2 [Compound 116],6.92
16,"O=C(Nc1ccc(Cl)c(Cl)c1)[C@@H]1[C@@H](c2ccncc2)[C@@H]2CC[C@H]1O2 [Compound 118, (1R,2R,3S,4S)—N-(3,4-dichlorophenyl)-3-(pyridin-4-yl)-7-oxabicyclo[2.2.1]heptane-2-carboxamide]",< 4.48
17,O=C(Nc1ccc(-c2ccccc2)cc1)[C@H]1[C@@H](c2cccnc2)[C@H]2CC[C@@H]1O2 [Compound 121],< 4.64
18,Cn1ccc([C@@H]2[C@H](C(=O)Nc3ccc(-c4ccccc4)cc3)[C@@H]3CC[C@H]2O3)n1 [Compound 122],< 4.48
19,O=C(Nc1ccc(-c2ccccc2Cl)c(F)c1)[C@H]1[C@@H](c2cccc(C(F)(F)F)n2)[C@H]2CC[C@@H]1O2 [Compound 123],< 4.96
20,CCOC(=O)c1ccc(NC(=O)C2=C(c3cccc(C(F)(F)F)n3)[C@@H]3CCC2O3)cc1 [Compound 129],< 4.48
